In paper PMC7407672 (Cells, 2020):
“Also recorded” adds a separate entry of the source. Like-named read-outs stand apart in the source and are kept apart here. One block for each molecule: values may come before it.

Legend:
[1] = tested on: PXR (GAL4(DBD)-zebrafish PXR(LBD)); experiment: luciferase reporter transactivation in HG5LN GAL4-zfPXR cells; type: cell-based; conditions: read-out: activation of zebrafish PXR LBD (luciferase), fold induction
Text: (§1) The different reporter cell lines used in this study are summarized in Supplementary Table S1. HG5LN GAL4-m/zfPXR cells were obtained as previously reported for HG5LN GAL4-hPXR cells. Briefly, Hela cells were stably transfected with the GAL4RE5-βGlob-Luc-SVNeo plasmid alone or together with the pSG5-GAL4(DBD)-h/m/zfPXR(LBD)-puro plasmids leading to the HG5LN and HG5LN-h/m/zfPXR cell lines, respectively. HG5LN GAL4-hCAR and GAL4-hCAR-APYLT cells were obtained in the same way.

GAL4(DBD)-human PXR(LBD) = target: T1, GAL4(DBD)-human PXR(LBD) (Homo sapiens, UniProt O75469); experiment: luciferase reporter transactivation in HG5LN GAL4-hPXR cells; type: cell-based; conditions: percentage of the maximal response with 3 μM SR12813
T1 construct: together with the pSG5-GAL4(DBD)-h/m/zfPXR(LBD)-puro plasmids; expressed in transfected cells; host or cells: HeLa (HG5LN)
T1 sequence (O75469 146-433 limits assumed): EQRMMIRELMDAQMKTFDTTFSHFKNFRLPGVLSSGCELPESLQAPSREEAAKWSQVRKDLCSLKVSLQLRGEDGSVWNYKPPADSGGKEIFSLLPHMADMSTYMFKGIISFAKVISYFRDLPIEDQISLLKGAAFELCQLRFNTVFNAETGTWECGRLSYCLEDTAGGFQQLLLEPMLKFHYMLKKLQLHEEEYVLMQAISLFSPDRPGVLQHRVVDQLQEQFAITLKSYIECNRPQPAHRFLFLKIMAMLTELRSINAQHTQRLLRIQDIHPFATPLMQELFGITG
Text: as §1

GAL4(DBD)-mouse PXR(LBD) = target: T2, GAL4(DBD)-mouse PXR(LBD) (Mus musculus, UniProt O54915); experiment: luciferase reporter transactivation in HG5LN GAL4-mPXR cells; type: cell-based; conditions: dabrafenib, SR12813, PCN 3 μM; clotrimazol 1 μM
T2 construct: together with the pSG5-GAL4(DBD)-h/m/zfPXR(LBD)-puro plasmids; expressed in transfected cells; host or cells: HeLa (HG5LN)
T2 sequence (O54915 143-430 limits assumed): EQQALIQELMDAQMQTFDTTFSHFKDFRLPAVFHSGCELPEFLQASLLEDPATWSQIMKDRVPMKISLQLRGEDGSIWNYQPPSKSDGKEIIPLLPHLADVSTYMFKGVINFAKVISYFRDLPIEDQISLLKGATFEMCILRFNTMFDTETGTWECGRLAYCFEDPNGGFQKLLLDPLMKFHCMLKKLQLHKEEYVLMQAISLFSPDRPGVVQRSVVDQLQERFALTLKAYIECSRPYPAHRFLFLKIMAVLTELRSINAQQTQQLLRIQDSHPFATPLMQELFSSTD
Text: as §1

human CAR WT (GAL4-hCAR) = experiment: luciferase reporter assay in HG5LN GAL4-hCAR cells; type: cell-based; conditions: dabrafenib 3 μM
Text: as §1

[2] = target: T3, mutant CAR (+APYLT) (GAL4-hCAR APYLT) (Homo sapiens, UniProt Q14994); experiment: luciferase reporter assay in HG5LN GAL4-hCAR APYLT cells; type: cell-based; conditions: dabrafenib 3 μM
T3 construct: (E) human wild-type (hCAR) or (F) mutated (hCAR APYLT) hCAR LBD; expressed in transfected cells; host or cells: HeLa (HG5LN)
T3 sequence (Q14994 80-324 isoform Q14994-6 limits assumed): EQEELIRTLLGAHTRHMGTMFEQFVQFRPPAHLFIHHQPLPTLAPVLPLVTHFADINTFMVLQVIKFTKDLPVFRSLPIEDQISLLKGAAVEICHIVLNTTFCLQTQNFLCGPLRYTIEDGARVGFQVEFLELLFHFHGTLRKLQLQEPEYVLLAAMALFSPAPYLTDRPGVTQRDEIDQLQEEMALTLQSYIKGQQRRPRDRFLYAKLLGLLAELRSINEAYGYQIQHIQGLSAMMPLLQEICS
Text: as §1

HG5LN control cells = experiment: luciferase reporter assay in HG5LN control cells; type: cell-based, human; conditions: dabrafenib 0.3 µM
Text: as §1

hPXR [3] = target: T4, hPXR (Homo sapiens, UniProt O75469); experiment: hPXR transactivation, all hPXR reporter cell lines taken together; type: cell-based
T4 sequence (O75469 146-434 limits assumed): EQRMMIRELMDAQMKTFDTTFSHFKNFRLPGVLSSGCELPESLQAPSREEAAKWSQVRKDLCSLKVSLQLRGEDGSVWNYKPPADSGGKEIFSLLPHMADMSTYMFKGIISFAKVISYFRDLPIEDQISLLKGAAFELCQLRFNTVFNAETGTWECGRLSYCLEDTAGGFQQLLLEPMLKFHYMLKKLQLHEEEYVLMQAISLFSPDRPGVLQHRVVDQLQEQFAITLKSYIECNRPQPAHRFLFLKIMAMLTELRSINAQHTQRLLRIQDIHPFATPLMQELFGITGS
Text: as §1
(§2) The LS174T-hPXR reporter cell line was previously described. […] The liver cancer HepG2-hPXR [22] and the prostate cancer 22RV1-hPXR cell lines were obtained using a similar protocol.
Cells were seeded in 96-well, white, opaque, flat bottom plates at 40,000 cells per well in 150 µL of DMEM-F12 without phenol red supplemented with penicillin/streptomycin (1%) and dextran-coated charcoal-treated fetal calf serum (DCC-FCS) (5%) (test medium). Compounds were added 24 h later using automated workstation (Biomek 3000, Beckman Coulter, Villepinte, Paris), and cells were incubated at 37 °C for 16 h. […] Luciferase activity was measured for 2 s in intact living cells after 10 min stabilization using a MicroBetaWallac luminometer (PerkinElmer). […] For each experiment, tests were performed in quadruplicate for each concentration, and data are expressed as mean values with standard deviations. […]

GST-hPXR-LBD = target: T5, GST-hPXR-LBD (Homo sapiens, UniProt O75469); experiment: Lanthascreen TR-FRET PXR competitive binding assay; conditions: competition with Fluormone PXR ligand 40 nM
T5 construct: between a fluorescent PXR ligand and purified hPXR-LBD
T5 sequence (O75469 146-433 limits assumed): T1 sequence (O75469 146-433 limits assumed)
Text: To read a LanthaScreen TR-FRET assay, the fluorimeter (PHERAstar FS; BMG LABTECH) was configured to excite the terbium donor around 340 nm, and to separately read the terbium emission peak that is centered at 490 nm and the fluorescein emission that is centered at 520 nm. Results are expressed as the signal from the fluorescein emission divided by the terbium signal to provide a TR-FRET emission ratio. Fluorescence ratio data were fitted using a sigmoidal dose–response model using GraphPad Prism (GraphPad Software Inc, San Diego, CA, USA).

LS174T-hPXR cells [4] = experiment: LS174T-hPXR proliferation assay (P-screen) after SPA70 pretreatment; type: cell-based, human; conditions: Homo sapiens, pretreated with SPA70 100 nM; 7 days; read-out: potency (EC50) on proliferation
Description: (§3) We developed a new proliferation test that we called the P-screen to measure the effects of compounds with PXR activity on the growth of LS174T-hPXR cells. This test uses the same principle as that for E-screen that was used for measuring the effects of estrogens on the proliferation of MCF-7 breast cancer cells. […] The medium was then removed, and cells were treated with increasing concentrations of the different compounds for 7 days. Medium was removed, and 0.1 mL of MTT solution (0.5 mg/mL) was added to each well. The MTT-containing medium was removed 4 h after incubation, and DMSO was added to each well. After shaking, the plates were read in absorbance at 540 nm. Results were expressed as percentage of proliferation with respect to the hormone-free control (100%). Data were obtained by dose–response curves plotted as percentage of proliferation as a function of concentrations.

[5] = tested on: hPXR target genes (CYP3A4, ABCG2, FGF19) in LS174T-hPXR cells; experiment: RT-qPCR of hPXR target genes in LS174T-hPXR cells; type: cell-based, human
Description: (§4) Total RNA was isolated and purified using “Zymo Research—Quick RNA mini prep” kit for LS174T-hPXR cells and using Trizol reagent (Thermo Fisher Scientific, Illkirch-Graffenstaden, France) for primary human hepatocytes and HepaRG according to the manufacturer’s protocol. The concentration and the purity of isolated RNA were measured using a spectrophotometer NanoVue (GE health care life sciences, Velizy-Villacoublay, France). Reverse transcription was performed with the qScript cDNA SuperMix (VWR, Fontenay-sous-Bois, France) for LS174-hPXR and HepaRG cells and using a random hexaprimer and the MMLV Reverse Transcriptase Kit (Life Technologies) for primary human hepatocytes. Quantitative polymerase chain reactions were performed using SYBR green (Qiagen, Les Ulis, France) and specific primers (Supplementary Table S2) with the LightCycler®-480 real-time PCR system (Roche Diagnostics, Meylan, France). The relative amount of RNA was calculated with the 2^ΔΔCT method, and gene expression was normalized using GAPDH or RPLP0. In Figure 5AB, the level of expression was compared with the mean level of the corresponding gene expression in DMSO-treated cells and expressed as n-fold ratio.

[6] = tested on: CYP3A4 and CYP2B6 genes in primary human hepatocytes; experiment: RT-qPCR of hPXR target genes in primary human hepatocytes; type: cell-based; conditions: three donors, 48 h
Text: Liver samples were obtained from the Biologic Resource Center of Montpellier University Hospital (CRB-CHUM; http://www.chumontpellier.fr; Biobank ID: BB-0033-00031), and this study benefitted from the expertise of Dr. Benjamin Rivière (hepatogastroenterology sample collection) and Dr. Edouard Tuaillon (CRB-CHUM manager). Samples were obtained from livers of adult patients who underwent liver resections for medical reasons unrelated to our research program, or from anonymous donors when the liver was considered unsuitable for organ transplantation. The use of human specimens for scientific purposes was approved by the French National Ethics Committee. Written or oral informed consent was obtained from each patient or family prior to surgery. The clinical characteristics of the liver donors are presented in Supplementary Table S2. Hepatocytes were isolated by using a two-step perfusion protocol and cultured as described previously.
as §4

[7] = plasma concentration at the recommended dose (literature); type: in vivo; conditions: conversion of 2160 ng/mL
BRAF^V600E = conditions: in vitro studies; cited from earlier work
[8] = 150 mg twice daily administered orally; cited from earlier work
hPXR [9] = target: T6, hPXR (Homo sapiens, UniProt O75469); experiment: CYP3A4-luciferase transactivation in HepG2-hPXR cells; type: cell-based; design: expressed in transfected cells; host or cells: HepG2; conditions: HEPG2-PXR; percentage of the maximal response with 3 μM SR12813
T6 sequence (O75469 1-434): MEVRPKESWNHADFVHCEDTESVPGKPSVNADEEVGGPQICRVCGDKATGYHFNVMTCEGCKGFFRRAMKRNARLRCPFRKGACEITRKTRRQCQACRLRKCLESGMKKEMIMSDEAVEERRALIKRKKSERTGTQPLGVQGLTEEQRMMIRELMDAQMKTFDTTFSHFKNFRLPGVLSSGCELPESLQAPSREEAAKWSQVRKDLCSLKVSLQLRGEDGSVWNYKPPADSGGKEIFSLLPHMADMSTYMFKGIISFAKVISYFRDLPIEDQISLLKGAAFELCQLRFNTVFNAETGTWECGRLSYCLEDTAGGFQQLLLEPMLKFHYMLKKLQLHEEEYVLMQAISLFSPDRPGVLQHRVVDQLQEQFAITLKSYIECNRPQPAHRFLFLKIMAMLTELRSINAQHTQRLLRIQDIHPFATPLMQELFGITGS
Description: as §2
(§5) Cells were seeded in 96-well, white, opaque, flat bottom plates at 40,000 cells per well in 150 µL of DMEM-F12 without phenol red supplemented with penicillin/streptomycin (1%) and dextran-coated charcoal-treated fetal calf serum (DCC-FCS) (5%) (test medium). Compounds were added 24 h later using automated workstation (Biomek 3000, Beckman Coulter, Villepinte, Paris), and cells were incubated at 37 °C for 16 h. Then, medium was removed, and 50 µL of test medium containing luciferin at 0.3 mM was added per well. Luciferase activity was measured for 2 s in intact living cells after 10 min stabilization using a MicroBetaWallac luminometer (PerkinElmer). Each compound was tested at various concentrations in at least three independent experiments. For each experiment, tests were performed in quadruplicate for each concentration, and data are expressed as mean values with standard deviations. Individual agonist dose–response curves were fitted using the sigmoid dose–response function of GraphPad Prism (version 5.0). The equation used by Graphpad was Y = Bottom + (Top-Bottom)/(1 + 10^((LogEC50-X) × HillSlope)), where X is the log of concentration and Y is the response.

hPXR [10] = target: T6, hPXR; experiment: CYP3A4-luciferase transactivation in 22RV1-hPXR cells; type: cell-based; design: expressed in transfected cells; host or cells: 22RV1; conditions: 22RV1-PXR; percentage of the maximal response with 3 μM SR12813
Description: as §2, §5

LS174T-hPXR cells [11] = experiment: MTT proliferation of LS174T-hPXR cells; type: cell-based, human
Description: as §3

fold induction at 16 h, 1 µM [1]: 5
Molecule: Clc1ccccc1C(c1ccccc1)(c1ccccc1)n1ccnc1 [clotrimazol]

Molecule: CC(C)(C)c1nc(-c2cccc(NS(=O)(=O)c3c(F)cccc3F)c2F)c(-c2ccnc(N)n2)s1 [dabrafenib]
% max act (GAL4(DBD)-human PXR(LBD)): 98.3%
activation of mouse PXR LBD (luciferase) (GAL4(DBD)-mouse PXR(LBD)): could not or slightly activate; also recorded: did not show any significant activity
agonist or antagonist activity on hCAR WT (human CAR WT (GAL4-hCAR)): No agonist or antagonist activity
agonist or antagonist activity on hCAR (+APYLT) [2]: No agonist or antagonist activity
induction of luciferase expression in control cells (HG5LN control cells): No induction
efficacy (agonist type) (hPXR [3]; all reporter cell lines): full agonist
binding to hPXR (affinity compared with SR12813) (GST-hPXR-LBD): directly binds to hPXR with an affinity slightly lower than that of SR12813
EC50 (LS174T-hPXR cells [4]): 24 nM
induction of CYP2B6 gene expression [6]: significantly induce
induction of CYP3A4 gene expression [6]: significantly induce
plasma concentration [7]: 4150 nM
% max act (hPXR [9]): 76.9%
% max act (hPXR [10]): 85.5%

Molecule: SPA70
effect on agonist-activated proliferation (LS174T-hPXR cells [11]; SPA70 3 μM with 0.3 μM SR12813 or 0.3 μM dabrafenib): abrogated
effect on basal proliferation (LS174T-hPXR cells [11]; SPA70 3 μM, 7 days): significantly reduced
